Assay [1] deals with T1, Acetylcholinesterase (Homo sapiens, UniProt P22303). Description: Inhibition of AChE (unknown origin) using acetylthiocholine iodide as substrate by Ellman's method. For orientation: Ellman's reagent forms a yellow product with free thiols.
Assay [2] concerns the target T1, Acetylcholinesterase. Description: Inhibition of AChE (unknown origin).

The values below come from ChEMBL document CHEMBL4251744, “Identification of Lycopodium Alkaloids Produced by an Ultraviolet-Irradiated Strain of Paraboeremia, an Endophytic Fungus from Lycopodium serratum var. longipetiolatum” (J Nat Prod, 2018).

Where only a bound is given, the exact number is not on record here.

T1 sequence (P22303 whole entry): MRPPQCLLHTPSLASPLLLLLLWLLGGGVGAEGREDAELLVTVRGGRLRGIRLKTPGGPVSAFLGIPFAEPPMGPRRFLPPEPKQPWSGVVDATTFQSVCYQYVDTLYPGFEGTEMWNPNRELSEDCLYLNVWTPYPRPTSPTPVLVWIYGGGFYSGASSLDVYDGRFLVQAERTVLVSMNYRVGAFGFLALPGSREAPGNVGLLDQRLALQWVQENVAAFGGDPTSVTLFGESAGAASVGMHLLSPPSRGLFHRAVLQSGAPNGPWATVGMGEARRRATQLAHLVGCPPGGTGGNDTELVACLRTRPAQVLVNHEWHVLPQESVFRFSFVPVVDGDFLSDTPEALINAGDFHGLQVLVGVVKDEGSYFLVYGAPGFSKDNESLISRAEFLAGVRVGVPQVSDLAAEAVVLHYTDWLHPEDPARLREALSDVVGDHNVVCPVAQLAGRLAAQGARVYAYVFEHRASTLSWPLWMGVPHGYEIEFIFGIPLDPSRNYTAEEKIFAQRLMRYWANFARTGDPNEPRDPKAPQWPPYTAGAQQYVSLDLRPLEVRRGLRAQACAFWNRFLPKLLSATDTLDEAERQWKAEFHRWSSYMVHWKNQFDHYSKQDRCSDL

As to `C[C@@H]1C[C@H]2CC(=O)[C@H]3CCC[N+]4([O-])CCC[C@@H]2[C@]34C1` (stereo partly drawn), the IC50 at Acetylcholinesterase [1] is greater than 100 µM.
The same measure, in the same setting: next, `C[C@@H]1C[C@H]2CC(=O)[C@H]3CCCN4CCC[C@@H]2[C@]34C1`: greater than 100 µM.
As for `C[C@@H]1C[C@H]2CC(=O)[C@H]3CCC[N+]4([O-])CCC[C@]2(O)[C@]34C1` (stereo partly drawn), on Acetylcholinesterase [2], the IC50 was determined as 0.59 µM.

The term IC50 denotes the midpoint of a concentration-inhibition curve. Lower therefore signals greater potency.
